According to US8772499B2, “TRPV3 modulators” (AbbVie Inc., priority 2011, dated 2014):
Like-named read-outs stand apart in the source and are kept apart here.

Tests used:
human TRPV3 = target: T1, human TRPV3 (Homo sapiens, UniProt Q8NET8); assay: In vitro antagonism of recombinant human TRPV3 activation (FLIPR Tetra calcium assay); type: cell-based; settings: HEK293 cells stably expressing human TRPV3, agonist 2-APB at 80 μM
T1 construct: expressed in transfected cells
T1 sequence (Q8NET8 1-790): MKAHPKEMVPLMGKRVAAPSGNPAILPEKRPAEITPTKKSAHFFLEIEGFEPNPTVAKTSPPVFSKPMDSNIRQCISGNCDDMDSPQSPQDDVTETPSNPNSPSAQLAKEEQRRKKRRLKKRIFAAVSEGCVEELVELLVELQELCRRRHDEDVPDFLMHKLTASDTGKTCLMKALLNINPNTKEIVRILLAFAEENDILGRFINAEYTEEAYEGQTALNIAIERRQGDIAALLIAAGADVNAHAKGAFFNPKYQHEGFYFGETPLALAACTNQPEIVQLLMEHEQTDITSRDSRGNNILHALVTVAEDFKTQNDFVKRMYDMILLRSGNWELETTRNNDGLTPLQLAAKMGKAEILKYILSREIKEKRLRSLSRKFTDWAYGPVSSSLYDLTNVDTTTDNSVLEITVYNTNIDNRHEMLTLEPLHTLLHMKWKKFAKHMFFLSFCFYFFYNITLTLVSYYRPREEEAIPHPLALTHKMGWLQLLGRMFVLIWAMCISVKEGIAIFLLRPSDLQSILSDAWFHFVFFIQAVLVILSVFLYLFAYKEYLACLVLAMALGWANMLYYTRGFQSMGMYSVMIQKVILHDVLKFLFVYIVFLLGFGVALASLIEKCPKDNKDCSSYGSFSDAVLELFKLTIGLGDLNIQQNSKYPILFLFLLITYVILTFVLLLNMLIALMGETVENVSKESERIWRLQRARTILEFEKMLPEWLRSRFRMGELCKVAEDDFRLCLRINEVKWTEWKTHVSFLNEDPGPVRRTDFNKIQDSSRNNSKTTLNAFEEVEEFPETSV
How it was run: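 Calcium flux read over a 10 min run: compound added at 10 s to Calcium-4-loaded human TRPV3-HEK293 cells, agonist 2-APB (80 μM, its EC80) after 3 min. IC50 derived from peak-minus-baseline signal as percentage of uninhibited 2-APB response, typically averaged over at least two runs.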

[1] = In vitro rat microsomal stability assay; type: in vitro ADME, rat (Sprague-Dawley)
How it was run: (§1)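 Incubations ran at 37° C. in microsomal preparations of rat (Sprague-Dawley) or human liver, with NADPH present, including at time zero.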

[2] = In vitro human microsomal stability assay; type: in vitro ADME
How it was run: as §1

[3] = actual measured value shown parenthetically, in most cases average of at least two runs, read-out: IC50
[4] = Sprague-Dawley, rat, microsomes, 0.5 h, 0.5 μM, pH 7.4
[5] = human, microsomes, 0.5 h, 0.5 μM, pH 7.4
[6] = reported range, read-out: IC50 (range class)

| SMILES | IC50 (human TRPV3; [3]) | RAT MICROSOMAL STABILITY (% REMAINING AFTER 30 MINUTES) [1, 4] | HUMAN MICROSOMAL STABILITY (% REMAINING AFTER 30 MINUTES) [2, 5] | IC50 (human TRPV3; [6]) | RAT MICROSOMAL STABILITY (% REMAINING AFTER 30 MINUTES) ([1]; rat liver microsomes (Sprague-Dawley), 0.5 μM substrate, 0.25 mg/mL microsomal protein, pH 7.4, 37° C., NADPH, 30 minutes) | HUMAN MICROSOMAL STABILITY (% REMAINING AFTER 30 MINUTES) ([2]; human liver microsomes, 0.5 μM substrate, 0.25 mg/mL microsomal protein, pH 7.4, 37° C., NADPH, 30 minutes) |
| --- | --- | --- | --- | --- | --- | --- |
| OC(c1ccccn1)C1(c2cccc(OC(F)(F)F)c2)CCOCC1 (centres unmarked) [Example 66, pyridin-2-yl{4-[3-(trifluoromethoxy)phenyl]tetrahydro-2H-pyran-4-yl}-methanol] | 1520 nM | 23% | 31% |  |  |  |
| OC(c1ccccn1)C1(c2ccc(OC(F)(F)F)cc2)CCOCC1 (centres unmarked) [Example 67, pyridin-2-yl{4-[4-(trifluoromethoxy)phenyl]tetrahydro-2H-pyran-4-yl}-methanol] | 2600 nM | 47% | 58% |  |  |  |
| OC(CC1(c2cccc(C(F)(F)F)c2)CCC1)c1ccccn1 (centres unmarked) [Example 74, 1-(pyridin-2-yl)-2-{1-[3-(trifluoromethyl)phenyl]cyclobutyl}ethanol] | 410 nM | 0.45% | 6.8% |  |  |  |
| OC(CC1(c2ccc(C(F)(F)F)cc2)CCC1)c1ccccn1 (centres unmarked) [Example 75, 1-(pyridin-2-yl)-2-{1-[4-(trifluoromethyl)phenyl]cyclobutyl}ethanol] | 940 nM | 0.74% | 44% |  |  |  |
| OC(CC1(c2ccc(OC(F)(F)F)cc2)CCC1)c1ccccn1 (centres unmarked) [Example 76, 1-(pyridin-2-yl)-2-{1-[4-(trifluoromethoxy)phenyl]cyclobutyl}ethanol] | 650 nM | 0.47% | 39% |  |  |  |
| OC(CC1(c2cccc(OC(F)(F)F)c2)CCC1)c1ccccn1 (centres unmarked) [Example 77, 1-(pyridin-2-yl)-2-{1-[3-(trifluoromethoxy)phenyl]cyclobutyl}ethanol] | 760 nM | 0.94% | 11% |  |  |  |
| OC(c1ccccn1)C1(c2ccc(Cl)c(Cl)c2)CC(F)(F)C1 (centres unmarked) [Example 82, [1-(3,4-dichlorophenyl)-3,3-difluorocyclobutyl](pyridin-2-yl)methanol] | 780 nM | 16% | 35% |  |  |  |
| OC(c1ccccn1)C1(c2ccc(C(F)(F)F)nc2)CCC1 (centres unmarked) [Example 85, pyridin-2-yl{1-[6-(trifluoromethyl)pyridin-3-yl]cyclobutyl}methanol] | 5610 nM | 76% | 82% |  |  |  |
| OC(c1ccccn1)C1(c2ccc(Cl)c(Cl)c2)COC1 (centres unmarked) [Example 87, [3-(3,4-dichlorophenyl)oxetan-3-yl](pyridin-2-yl)methanol] | > 20000 nM | 8.6% | 47% | > 20000 nM |  |  |
| Cc1ccccc1C1(C(O)c2ccccn2)CCCO1 (centres unmarked) [Example 90, [2-(2-methylphenyl)tetrahydrofuran-2-yl](pyridin-2-yl)methanol] | 460 nM | <0.01% | 35% |  |  |  |
| Cc1cccc(C2(C(O)c3ccccn3)CCCO2)c1 (centres unmarked) [Example 91, [2-(3-methylphenyl)tetrahydrofuran-2-yl](pyridin-2-yl)methanol] | 330 nM | 1.0% | 46% |  |  |  |
| OC(c1ccccn1)C1(c2ccccc2F)CCCO1 (centres unmarked) [Example 102] | > 20000 nM |  |  | > 20000 nM | 0.55% | 45% |
| OC(c1ccccn1)C1(c2ccccc2F)CCCO1 (stereo not drawn) [Example 103, (syn)-[2-(2-fluorophenyl)tetrahydrofuran-2-yl](pyridin-2-yl)methanol] | 2000 nM | 0.012% | 73% |  |  |  |
| OC(c1ccccn1)C1(c2cncc(C(F)(F)F)c2)CCC1 (centres unmarked) [Example 110, pyridin-2-yl{1-[5-(trifluoromethyl)pyridin-3-yl]cyclobutyl}methanol] | 500 nM | 2.8% | 8.0% |  |  |  |
